Laboratory results from patent US10899769B2, “Imidazopiperazinone inhibitors of transcription activating proteins” (Board of Regents, The University of Texas System, priority 2018, dated 2021).
pIC50: −log10 of the molar value.

Columns and labels:
[1] = target: GST-CBP(1081-1197) bromodomain (Homo sapiens (Human), UniProt Q92793); test: CBP AlphaScreen Assay; conditions: binding to biotin-H4(1-21) Ac-K5/8/12/16
Summary of the method: (§1)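 AlphaScreen binding of GST-bromodomain to biotin-H4(1-21) Ac-K5/8/12/16: 5 nM CBP with 20 nM peptide, or 2.5 nM BRD4 with 10 nM peptide, in 50 mM HEPES 7.5, […], 1 mM TCEP, 0.003% Tween-20. Compound preincubated 30 min, then beads 2 h, room temperature. IC50 from variable-slope fit.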

[2] = target: BRD4(49-170) bromodomain (Homo sapiens (Human), UniProt O60885); test: BRD4 AlphaScreen Assay; conditions: binding to biotin-H4(1-21) Ac-K5/8/12/16
Summary of the method: as §1

Sequence of GST-CBP(1081-1197) bromodomain (Q92793 1081-1197): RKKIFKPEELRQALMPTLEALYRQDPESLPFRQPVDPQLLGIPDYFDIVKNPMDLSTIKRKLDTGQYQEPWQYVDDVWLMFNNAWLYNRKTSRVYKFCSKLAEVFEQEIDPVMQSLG

SMILES	pIC50 [1]	pIC50 [2]
CN1Cc2c(N3CCCc4cc(-c5cnn(C)c5)c(C(F)F)cc43)nc(C3CC3)n2CC1=O [Example 1, 3-cyclopropyl-1-(7-(difluoromethyl)-6-(1-methyl-1H-pyrazol-4-yl)-3,4-dihydroquinolin-1(2H)-yl)-7-methyl-7,8-dihydroimidazo[1,5-a]pyrazin-6(5H)-one]	8.15	5.06
CC1C(=O)N(C)Cc2c(-c3cccc4nc(-c5cnn(C)c5)c(C(F)F)cc34)nc(C3CNC3)n21 (centres unmarked) [Example 18, 3-(Azetidin-3-yl)-1-(3-(difluoromethyl)-2-(1-methyl-1H-pyrazol-4-yl)quinolin-5-yl)-5,7-dimethyl-7,8-dihydroimidazo[1,5-a]pyrazin-6(5H)-one]	7.30	4.76
CCN1Cc2c(N3CCCc4cc(-c5cnn(C)c5)c(C(F)F)cc43)nc(C3CC3)n2CC1=O [Example 48, 3-cyclopropyl-1-(7-(difluoromethyl)-6-(1-methyl-1H-pyrazol-4-yl)-3,4-dihydroquinolin-1(2H)-yl)-7-ethyl-7,8-dihydroimidazo[1,5-a] pyrazin-6(5H)-one]	7.74	4.75
CC1C(=O)N(C)Cc2c(-c3cccc4cc(-c5nn[nH]n5)ncc34)nc(C3CC3)n21 (centres unmarked) [Example 17, 1-(3-(2H-Tetrazol-5-yl)isoquinolin-8-yl)-3-cyclopropyl-5,7-dimethyl-7,8-dihydroimidazo[1,5-a]pyrazin-6(5H)-one]	8.70	5.52
CN1Cc2c(-c3cccc4nc(-c5cnn(C)c5)c(C(F)F)cc34)nc(C3CC3)n2CC1=O [Example 108, 3-cyclopropyl-1-(3-(difluoromethyl)-2-(1-methyl-1H-pyrazol-4-yl)quinolin-5-yl)-7-methyl-7,8-dihydroimidazo[1,5-a] pyrazin-6(5H)-one]	6.94	4.74
COCCN1CCC(c2nc(-c3cccc4nc(-c5cnn(C)c5)c(C(F)F)cc34)c3n2C(C)C(=O)N(C)C3)CC1 (centres unmarked) [Example 82, 1-(3-(difluoromethyl)-2-(1-methyl-1H-pyrazol-4-yl)quinolin-5-yl)-3-(1-(2-methoxyethyl)piperidin-4-yl)-5,7-dimethyl-7,8-dihydroimidazo[1,5-a] pyrazin-6(5H)-one]	6.64	4.91
CCC1C(=O)N(C)Cc2c(-c3cccc4nc(-c5cnn(C)c5)c(C(F)F)cc34)nc(C3CCOCC3)n21 (single isomer, unassigned) [Example 64b, 1-(3-(difluoromethyl)-2-(1-methyl-1H-pyrazol-4-yl)quinolin-5-yl)-5-ethyl-7-methyl-3-(tetrahydro-2H-pyran-4-yl)-7,8-dihydroimidazo[1,5-a] pyrazin-6(5H)-one]	7.34	6.14
CC1C(=O)N(C)Cc2c(-c3cccc4cc(N5CCOCC5)ncc34)nc(C3CCOCC3)n21 (single isomer, unassigned) [Example 16a, 5,7-Dimethyl-1-(3-morpholinoisoquinolin-8-yl)-3-(tetrahydro-2H-pyran-4-yl)-7,8-dihydroimidazo[1,5-a]pyrazin-6(5H)-one]	5.95	≤ 4.60
CC1C(=O)N(C)Cc2c(-c3ccc4cncn4c3)nc(C3CC3)n21 (centres unmarked) [Example 54, 3-cyclopropyl-1-(imidazo[1,5-a]pyridin-6-yl)-5,7-dimethyl-7,8-dihydroimidazo[1,5-a] pyrazin-6(5H)-one]	6.12	5.68
Cc1cn(-c2cc3ccc(F)c(-c4nc(C5CCOCC5)n5c4CN(C)C(=O)C5C)c3cn2)cn1 (single isomer, unassigned) [Example 33b, 1-(7-fluoro-3-(4-methyl-1H-imidazol-1-yl)isoquinolin-8-yl)-5,7-dimethyl-3-(tetrahydro-2H-pyran-4-yl)-7,8-dihydroimidazo[1,5-a]pyrazin-6(5H)-one]	8.22	5.67
CN1Cc2c(-c3cccc4nc(-c5cnn(C)c5)c(C(F)F)cc34)nc(C3CCOCC3)n2C(F)C1=O (centres unmarked) [Example 27, 1-(3-(Difluoromethyl)-2-(1-methyl-1H-pyrazol-4-yl)quinolin-5-yl)-5-fluoro-7-methyl-3-(tetrahydro-2H-pyran-4-yl)-7,8-dihydroimidazo[1,5-a]pyrazin-6(5H)-one]	7.37	5.05
Cc1nn(C)cc1-c1cc2cccc(-c3nc(C4CCOCC4)n4c3CN(C)C(=O)C4C)c2cn1 (centres unmarked) [Example 88, 1-(3-(1,3-dimethyl-1H-pyrazol-4-yl)isoquinolin-8-yl)-5,7-dimethyl-3-(tetrahydro-2H-pyran-4-yl)-7,8-dihydroimidazo[1,5-a] pyrazin-6(5H)-one]	9.00	7.00
Cn1cc(-c2cc3cccc(-c4nc(C5CC5)n5c4CN(CCO)C(=O)C5)c3cn2)cn1 [Example 6, 3-Cyclopropyl-7-(2-hydroxyethyl)-1-(3-(1-methyl-1H-pyrazol-4-yl)isoquinolin-8-yl)-7,8-dihydroimidazo[1,5-a]pyrazin-6(5H)-one]	5.65	4.60
Cc1cn(-c2cc3ccc(F)c(-c4nc(C5CCOCC5)n5c4CN(C)C(=O)C5C)c3cn2)cn1 (single isomer, unassigned) [Example 33a, 1-(7-fluoro-3-(4-methyl-1H-imidazol-1-yl)isoquinolin-8-yl)-5,7-dimethyl-3-(tetrahydro-2H-pyran-4-yl)-7,8-dihydroimidazo[1,5-a]pyrazin-6(5H)-one]	5.79	≤ 4.60
Cc1cn(-c2nc3cccc(-c4nc(C5CC5)n5c4CN(C)C(=O)C5C)c3cc2C(F)F)cn1 (centres unmarked) [Example 11, 3-cyclopropyl-1-(3-(difluoromethyl)-2-(4-methyl-1H-imidazol-1-yl)quinolin-5-yl)-5,7-dimethyl-7,8-dihydroimidazo[1,5-a]pyrazin-6(5H)-one]	8.40	6.57
CC1C(=O)N(C)Cc2c(-c3c(F)ccc4nc(-c5cnn(C)c5)c(C(F)F)cc34)nc(C3CCOCC3)n21 (single isomer, unassigned) [Example 36a, 1-(3-(Difluoromethyl)-6-fluoro-2-(1-methyl-1H-pyrazol-4-yl)quinolin-5-yl)-5,7-dimethyl-3-(tetrahydro-2H-pyran-4-yl)-7,8-dihydroimidazo[1,5-a]pyrazin-6(5H)-one]	8.70	6.20
CC1C(=O)N(C)Cc2c(-c3ccc4c(c3)c(-c3cnn(C)c3)nn4C)nc(C3CCOCC3)n21 (centres unmarked) [Example 40, 5,7-Dimethyl-1-(1-methyl-3-(1-methyl-1H-pyrazol-4-yl)-1H-indazol-5-yl)-3-(tetrahydro-2H-pyran-4-yl)-7,8-dihydroimidazo[1,5-a]pyrazin-6(5H)-one]	8.05	5.98
CC1C(=O)N(C)Cc2c(-c3cccc4nc(-c5cnn(C)c5)c(C(F)F)cc34)nc(C3CCNCC3)n21 (centres unmarked) [Example 75, 1-(3-(difluoromethyl)-2-(1-methyl-1H-pyrazol-4-yl)quinolin-5-yl)-5,7-dimethyl-3-(piperidin-4-yl)-7,8-dihydroimidazo[1,5-a] pyrazin-6(5H)-one]	6.76	4.92
CC1C(=O)N(C)Cc2c(-c3cccc4nc(C5CCOCC5)c(C(F)F)cc34)nc(C3CC3)n21 (centres unmarked) [Example 10, 3-Cyclopropyl-1-(3-(difluoromethyl)-2-(tetrahydro-2H-pyran-4-yl)quinolin-5-yl)-5,7-dimethyl-7,8-dihydroimidazo[1,5-a]pyrazin-6(5H)-one]	8.70	7.29
Cc1nn(C)cc1-c1cc2ccc(F)c(-c3nc(C4CCOCC4)n4c3CN(C)C(=O)C4C)c2cn1 (single isomer, unassigned) [Example 91a, 1-(3-(1,3-dimethyl-1H-pyrazol-4-yl)-7-fluoroisoquinolin-8-yl)-5,7-dimethyl-3-(tetrahydro-2H-pyran-4-yl)-7,8-dihydroimidazo[1,5-a] pyrazin-6(5H)-one]	5.44	4.60
Cc1cn(-c2cc3cccc(-c4nc(C5CCOCC5)n5c4CN(C)C(=O)C5C)c3cn2)cn1 (single isomer, unassigned) [Example 30b, 5,7-dimethyl-1-(3-(4-methyl-1H-imidazol-1-yl)isoquinolin-8-yl)-3-(tetrahydro-2H-pyran-4-yl)-7,8-dihydroimidazo[1,5-a]pyrazin-6(5H)-one]	6.43	4.73
Cc1cn(-c2cc3cccc(-c4nc(C5CCOCC5)n5c4CN(C)C(=O)C5C)c3cn2)cn1 (single isomer, unassigned) [Example 30a, 5,7-dimethyl-1-(3-(4-methyl-1H-imidazol-1-yl)isoquinolin-8-yl)-3-(tetrahydro-2H-pyran-4-yl)-7,8-dihydroimidazo[1,5-a]pyrazin-6(5H)-one]	9.00	7.02
CC1C(=O)N(C)Cc2c(-c3cccc4cc(-c5cn(C)cn5)ncc34)nc(C3CC3)n21 (centres unmarked) [Example 76, 3-cyclopropyl-5,7-dimethyl-1-(3-(1-methyl-1H-imidazol-4-yl)isoquinolin-8-yl)-7,8-dihydroimidazo[1,5-a] pyrazin-6(5H)-one]	8.70	6.42
Cc1nn(C)cc1-c1cc2ccc(F)c(-c3nc(C4CCOCC4)n4c3CN(C)C(=O)C4C)c2cn1 (single isomer, unassigned) [Example 91b, 1-(3-(1,3-dimethyl-1H-pyrazol-4-yl)-7-fluoroisoquinolin-8-yl)-5,7-dimethyl-3-(tetrahydro-2H-pyran-4-yl)-7,8-dihydroimidazo[1,5-a] pyrazin-6(5H)-one]	8.52	6.54
Cc1ncc(-c2cc3ccc(C)c(-c4nc(C5CCOCC5)n5c4CN(C)C(=O)C5C)c3cn2)s1 (single isomer, unassigned) [Example 38b]	6.52	5.31
